According to PubChem BioAssay AID256 (DTP/NCI, 2004):
Several values for one entry are separate records, joined by “and”; a condition that tells them apart may be missing. Equal values may be shown once. Inconclusive results and toxic doses are left out.

System: CD2F1 mice, L1210 leukemia ip, survival T/C
Assay: NCI In Vivo Anticancer Drug Screen. Data for tumor model L1210 Leukemia (intraperitoneal) in CD2F1 (CDF1) mice
Details: higher = longer survival
Outline: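 Mice carrying a transplanted tumor received test compound or vehicle alone. The value is the measurement in the treated group divided by that in the vehicle-treated control group.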

[1] = endpoint: mean survival time, dose: 100.0 mg/kg/injection, schedule: Q04DX003 (ip), vehicle: saline with Tween-80
[2] = endpoint: mean survival time, dose: 200.0 mg/kg/injection, schedule: Q04DX003 (ip), vehicle: saline with Tween-80
[3] = endpoint: mean survival time, dose: 400.0 mg/kg/injection, schedule: Q04DX003 (ip), vehicle: saline with Tween-80
[4] = endpoint: mean survival time, dose: 100.0 mg/kg/injection, schedule: Q01DX009 (ip), vehicle: saline sonified
[5] = endpoint: mean survival time, dose: 200.0 mg/kg/injection, schedule: Q01DX009 (ip), vehicle: saline sonified
[6] = endpoint: mean survival time, dose: 100.0 mg/kg/injection, schedule: Q04DX003 (ip), vehicle: saline
[7] = endpoint: mean survival time, dose: 200.0 mg/kg/injection, schedule: Q04DX003 (ip), vehicle: saline
[8] = endpoint: mean survival time, dose: 100.0 mg/kg/injection, schedule: Q01DX009 (ip), vehicle: saline with Tween-80
[9] = endpoint: mean survival time, dose: 200.0 mg/kg/injection, schedule: Q01DX009 (ip), vehicle: saline with Tween-80
[10] = endpoint: mean survival time, dose: 400.0 mg/kg/injection, schedule: Q01DX009 (ip), vehicle: saline with Tween-80

CCOC(=N)CCCl
T/C [1]: 106 % of control
T/C [2]: 101 % of control
T/C [3]: 97 % of control

CC(=O)NC(C(=O)O)C(C)C.CC(=O)NC(C(=O)O)C(C)C.[NH-]C1CCCCC1[NH-].[Pt+2] (stereo not given)
T/C (endpoint: median survival time, dose: 3.12 mg/kg/injection, schedule: Q04DX003 (ip), vehicle: saline): 102 % of control and 107 % of control and 108 % of control
T/C (endpoint: median survival time, dose: 6.25 mg/kg/injection, schedule: Q04DX003 (ip), vehicle: saline): 107 % of control [middle of 4 runs]
T/C (endpoint: median survival time, dose: 12.5 mg/kg/injection, schedule: Q04DX003 (ip), vehicle: saline): 112 % of control [middle of 4 runs]
T/C (endpoint: median survival time, dose: 25.0 mg/kg/injection, schedule: Q04DX003 (ip), vehicle: saline): 112 % of control [middle of 4 runs]
T/C (endpoint: median survival time, dose: 50.0 mg/kg/injection, schedule: Q04DX003 (ip), vehicle: saline): 122 % of control and 119 % of control
T/C (endpoint: median survival time, dose: 200.0 mg/kg/injection, schedule: Q04DX003 (ip), vehicle: saline): 187 % of control [middle of 4 runs]

Cn1c(=O)c2[nH]cnc2n(C)c1=O (tested in a mixture with another compound)
T/C (endpoint: mean survival time, dose: 50.0 mg/kg/injection, schedule: Q01DX009 (ip), vehicle: saline sonified): 98 % of control
T/C [4]: 98 % of control
T/C [5]: 98 % of control

COc1cc(OC)c(OC)cc1Br
T/C [4]: 101 % of control
T/C [1]: 102 % of control
T/C [5]: 97 % of control
T/C [2]: 102 % of control
T/C (endpoint: mean survival time, dose: 400.0 mg/kg/injection, schedule: Q01DX009 (ip), vehicle: saline sonified): 97 % of control
T/C [3]: 102 % of control

C=CCCCCCCCCC(=O)N(CCOC)CCOC
T/C [1]: 93 % of control
T/C [2]: 94 % of control
T/C [3]: 98 % of control

CC(Nc1ccccc1C(=O)O)C(=O)O (stereo not given)
T/C [1]: 102 % of control
T/C [2]: 104 % of control
T/C [3]: 104 % of control

CCOC(N)=O
T/C (endpoint: mean survival time, dose: 125.0 mg/kg/injection, schedule: Q01DX009 (ip), vehicle: saline): 98 % of control and 101 % of control
T/C (endpoint: mean survival time, dose: 250.0 mg/kg/injection, schedule: Q01DX009 (ip), vehicle: saline): 104 % of control and 109 % of control
T/C (endpoint: mean survival time, dose: 500.0 mg/kg/injection, schedule: Q01DX009 (ip), vehicle: saline): 116 % of control and 101 % of control
T/C (endpoint: mean survival time, dose: 1000.0 mg/kg/injection, schedule: Q01DX009 (ip), vehicle: saline): 89 % of control and 105 % of control

COc1ccc2c(c1)N(CC(C)C[N+](C)(C)CCCCCCCCCCCCCCCC[N+](C)(C)CC(C)CN1c3ccccc3Sc3ccc(OC)cc31)c1ccccc1S2 (stereo not given)
T/C [6]: 91 % of control
T/C [7]: 91 % of control

CCCCNC(C)(C)C(SS)c1ccc(Cl)cc1 (stereo not given)
T/C [6]: 94 % of control
T/C [7]: 105 % of control

OCC1OC(n2cnc3c(N4CCCC4)ncnc32)C(O)C1O (stereo not given)
T/C (endpoint: mean survival time, dose: 12.5 mg/kg/injection, schedule: Q01DX005 (ip), vehicle: other): 101 % of control
T/C (endpoint: mean survival time, dose: 25.0 mg/kg/injection, schedule: Q01DX005 (ip), vehicle: other): 101 % of control
T/C (endpoint: mean survival time, dose: 50.0 mg/kg/injection, schedule: Q01DX005 (ip), vehicle: other): 108 % of control
T/C (endpoint: mean survival time, dose: 100.0 mg/kg/injection, schedule: Q01DX005 (ip), vehicle: other): 106 % of control
T/C (endpoint: mean survival time, dose: 200.0 mg/kg/injection, schedule: Q01DX005 (ip), vehicle: other): 96 % of control

O=C(O)/C(=C\c1ccccc1)NC(=O)c1ccccc1
T/C [8]: 95 % of control
T/C [9]: 96 % of control
T/C [10]: 105 % of control

CCSCCCCO
T/C (endpoint: mean survival time, dose: 75.0 mg/kg/injection, schedule: Q04DX003 (ip), vehicle: saline): 97 % of control
T/C (endpoint: mean survival time, dose: 150.0 mg/kg/injection, schedule: Q04DX003 (ip), vehicle: saline): 103 % of control
T/C (endpoint: mean survival time, dose: 300.0 mg/kg/injection, schedule: Q04DX003 (ip), vehicle: saline): 98 % of control

c1ccc(N=C(c2ccccc2)c2ccccc2)cc1
T/C [1]: 103 % of control
T/C [2]: 93 % of control
T/C [3]: 93 % of control

CNC(=O)Nc1ccc(OS(=O)(=O)N(C)C)cc1
T/C [1]: 101 % of control
T/C [2]: 101 % of control
T/C [3]: 101 % of control

CCOC(=O)/C=C/C(C(=O)OCC)C(=O)OCC
T/C [1]: 103 % of control
T/C [2]: 97 % of control
T/C [3]: 101 % of control

CCCCCCCC(=O)Oc1ccc(N=Nc2ccc(OCC)cc2)cc1
T/C [8]: 93 % of control
T/C [1]: 95 % of control
T/C [9]: 90 % of control
T/C [2]: 95 % of control
T/C [10]: 98 % of control
T/C [3]: 89 % of control

O=C(c1ccccc1)c1c[nH]c2ccccc12
T/C [1]: 100 % of control
T/C [2]: 86 % of control
T/C [3]: 90 % of control

NC(=O)NC1CC1(c1ccccc1)c1ccccc1 (stereo not given)
T/C (endpoint: mean survival time, dose: 177.0 mg/kg/injection, schedule: Q01DX001 (ip), vehicle: other): 94 % of control
T/C (endpoint: mean survival time, dose: 267.0 mg/kg/injection, schedule: Q01DX001 (ip), vehicle: other): 96 % of control
T/C (endpoint: mean survival time, dose: 400.0 mg/kg/injection, schedule: Q01DX001 (ip), vehicle: other): 100 % of control

COc1ccc(C2=NCCc3cc(OC)c(OC)cc32)cc1OC
T/C (endpoint: mean survival time, dose: 12.5 mg/kg/injection, schedule: Q01DX009 (ip), vehicle: other): 90 % of control
T/C (endpoint: mean survival time, dose: 25.0 mg/kg/injection, schedule: Q01DX009 (ip), vehicle: other): 92 % of control

COc1cc(C(C)=O)cc(OCc2ccccc2)c1OC
T/C [8]: 100 % of control
T/C [9]: 102 % of control
T/C [10]: 96 % of control

CC(=O)OCC1OC(n2cnc3c(=S)nc(N)[nH]c32)C(OC(C)=O)C1OC(C)=O (stereo not given)
T/C (endpoint: mean survival time, dose: 100.0 mg/kg/injection, schedule: Q01DX005 (ip), vehicle: saline): 112 % of control
T/C (endpoint: mean survival time, dose: 200.0 mg/kg/injection, schedule: Q01DX005 (ip), vehicle: saline): 123 % of control

CCCc1cc(C(C)=O)c[n+](C2OC(COC(=O)c3ccccc3)C(OC(=O)c3ccccc3)C2O)c1 (stereo not given)
T/C (endpoint: mean survival time, dose: 3.13 mg/kg/injection, schedule: Q01DX005 (ip), vehicle: distilled water + Tween-80): 109 % of control
T/C (endpoint: mean survival time, dose: 6.25 mg/kg/injection, schedule: Q01DX005 (ip), vehicle: distilled water + Tween-80): 92 % of control
T/C (endpoint: mean survival time, dose: 12.5 mg/kg/injection, schedule: Q01DX005 (ip), vehicle: distilled water + Tween-80): 93 % of control
T/C (endpoint: mean survival time, dose: 25.0 mg/kg/injection, schedule: Q01DX005 (ip), vehicle: distilled water + Tween-80): 89 % of control
T/C (endpoint: mean survival time, dose: 50.0 mg/kg/injection, schedule: Q01DX005 (ip), vehicle: distilled water + Tween-80): 90 % of control and 97 % of control

c1ccc2c3c([nH]c2c1)CCCCC3
T/C [1]: 92 % of control
T/C [2]: 95 % of control
T/C [3]: 94 % of control

Cc1cc(C)c(NC(=O)c2cccc(Cl)c2)c(C)c1
T/C [8]: 104 % of control
T/C [1]: 94 % of control
T/C [9]: 98 % of control
T/C [2]: 96 % of control
T/C [10]: 105 % of control
T/C [3]: 88 % of control

CCN(CC)c1cccc(OC(=O)NC)c1
T/C (endpoint: mean survival time, dose: 5.0 mg/kg/injection, schedule: Q01DX001 (ip), vehicle: saline): 102 % of control
T/C (endpoint: mean survival time, dose: 10.0 mg/kg/injection, schedule: Q01DX001 (ip), vehicle: saline): 102 % of control
T/C (endpoint: mean survival time, dose: 20.0 mg/kg/injection, schedule: Q01DX001 (ip), vehicle: saline): 102 % of control

NC(=O)c1[nH]cnc1/N=N/N(CCF)CCF
T/C (endpoint: mean survival time, dose: 8.8 mg/kg/injection, schedule: Q01DX001 (ip), vehicle: other): 121 % of control
T/C (endpoint: mean survival time, dose: 30.0 mg/kg/injection, schedule: Q01DX001 (ip), vehicle: other): 158 % of control

CC(C(=O)c1ccccc1)=C(C(F)(F)F)C(F)(F)F
T/C [8]: 98 % of control
T/C [1]: 91 % of control
T/C [9]: 97 % of control
T/C [2]: 97 % of control
T/C [10]: 103 % of control
T/C [3]: 100 % of control

C[N+](C)(C)CCCCC[N+](C)(C)C
T/C (endpoint: mean survival time, dose: 6.25 mg/kg/injection, schedule: Q01DX009 (ip), vehicle: saline sonified): 93 % of control
T/C (endpoint: mean survival time, dose: 6.25 mg/kg/injection, schedule: Q04DX003 (ip), vehicle: saline): 103 % of control
T/C (endpoint: mean survival time, dose: 12.5 mg/kg/injection, schedule: Q01DX009 (ip), vehicle: saline sonified): 90 % of control
T/C (endpoint: mean survival time, dose: 12.5 mg/kg/injection, schedule: Q04DX003 (ip), vehicle: saline): 95 % of control
T/C (endpoint: mean survival time, dose: 25.0 mg/kg/injection, schedule: Q01DX009 (ip), vehicle: saline sonified): 93 % of control
T/C (endpoint: mean survival time, dose: 25.0 mg/kg/injection, schedule: Q01DX009 (ip), vehicle: saline with Tween-80): 100 % of control
T/C (endpoint: mean survival time, dose: 25.0 mg/kg/injection, schedule: Q04DX003 (ip), vehicle: saline): 101 % of control
T/C (endpoint: mean survival time, dose: 50.0 mg/kg/injection, schedule: Q01DX009 (ip), vehicle: saline with Tween-80): 108 % of control
T/C [8]: 103 % of control
T/C [1]: 86 % of control

O=C(O)C1=CCCc2ccc(Br)cc21
T/C (endpoint: median survival time, dose: 25.0 mg/kg/injection, schedule: Q04DX003 (ip), vehicle: saline with Tween-80): 100 % of control
T/C (endpoint: median survival time, dose: 50.0 mg/kg/injection, schedule: Q04DX003 (ip), vehicle: saline with Tween-80): 100 % of control
T/C (endpoint: median survival time, dose: 100.0 mg/kg/injection, schedule: Q04DX003 (ip), vehicle: saline with Tween-80): 88 % of control
T/C (endpoint: median survival time, dose: 200.0 mg/kg/injection, schedule: Q04DX003 (ip), vehicle: saline with Tween-80): 88 % of control
